Laboratory results: patent US5623080A, “Fluorone and pyronin Y derivatives” (Spectra Group Limited, Inc., priority 1995, dated 1997)

What was measured:
pencil hardness = test: pencil hardness
Description: (§1) To a resin formulation consisting of 15 parts urethane diacrylate, 15 parts DPHPA, 20 parts TPGDA and 40 parts TMPTA was added DIDMA, initiator and (4-octyloxyphenyl)phenyliodonium hexafluoroantimonate (OPPI). The samples were coated to a thickness of 15 microns and exposed to a 75 W tungsten halogen dental lamp (focused through an optical fiber) at a distance of 0.75 inch at which the Light intensity was about 0.40 W/cm^2. The molar ratios are indicative of the amounts of fluorone to onium salt to amine coinitiator. The double bond conversion was determined by FTIR spectroscopy. The pencil hardness of a given test sample is measured by holding a pencil at a 45° angle to the sample and drawing across it towards the person testing it. Using the pencils in an order from softest to hardest, the first pencil that scratches the surface is assigned as the pencil hardness of the sample. The pencil hardness scale is as follows from softest to hardest: 4B, 3B, 2B, B, HB, H, 2H, 3H, 4H, 6H. For instance, if a 2H pencil is the first pencil to scratch the surface then the pencil hardness is 2H.
At the extreme ends of the scale, it is impossible to determine the actual pencil hardness. […] Likewise, if the 4B pencil scratches the sample, the only assignment that can be made is <4B, unless it is a lot softer than 4B in which case a <<4B can be assigned. A pencil hardness of 4H is generally considered satisfactory. Pencil hardness data was greater than 6H after 30 seocnd exposure for all samples except for the control samples without amine (1:2:0). The controls were all less than 4B an 0.05 wt %, 0.10 wt %, and 0.15 wt %.
Photosensitive compositions were prepared from the resin formulation of Example 35 containing 1% NPG and 0.05% DIBF or 0.05% DIEF. The samples were exposed under the conditions shown in the following table and pencil hardness was measured.
Diphenyliodonium hexafluoroantimonate was added to DIBF samples.
Samples were also prepared using 1% DIDMA in addition to the fluorone for a 20:1 weight ratio.
Samples were also prepared from the same resin formulation containing 0.1% DIBF in addition to the coinitiator listed in the following Table 9 with the exposure condition and pencil hardness results shown.
Using the resin formulation of Example 36, photosensitive compositions were prepared using TIHF, DIDMA and OPPI at a concentration of 0.21% and in the molar ratios shown in Table 10 which follows. Exposure was conducted with the dental lamp at a distance of 1 inch from the sample to provide an intensity of about 0.26 W/cm^2. Molar ratios are fluorone:onium salt:amine.

[1] = double bond conversion (C=C% Conversion) by FTIR; details: 0.05 wt %; (1:2:3); NPG; 60 sec
[2] = absorption wavelength (λmax) and extinction (ε); format: physicochemical; details: EtOH, Table 1
depth of cure = test: depth of cure
From the text: One of the advantages of the fluorone dye photoinitiators in this invention is the depth of the cure that is obtainable. This is in contrast to UV photoinitators that causes a "screening" effect which prevents the UV light from penetrating beyond a certain […] depth, usually several millimeters. By contrast, the fluorone dye bleaches as it photoinitiates and is concommitantly converted into a non-visible absorbing species thus allowing more visible light to penetrate which continues the cure. This cascading bleaching effect permits substantial depth of cure which can easily reach several inches.
An acrylate monomer mixture was composed of 15 parts urethane diacrylate, 20 parts TPGPA, 40 parts TMPTA and 15 parts DPHPA, and a 20 to 1 weight ratio of NPG coinitiator to DIEF or DIBF fluorone dye. For dye concentrations of 0.01, 0.05 and 0.1 weight, all the formulations cured to a depth of 3 cm in 30 seconds when exposed to a 350 watt tungsten halogen light which provides about 500 mw/cm^2 irradiance. When the irradiance was increased to about 2 watts/cm^2 cure speed was shortened to 5 seconds for the same depth.
An acrylate mixture was composed of 60% urethane diacrylate, 30% DPHPA, 10% BDDA, and 0.05 weight % of DIEF or DIBF fluorone dye with 2 weight % of DIDMA. The formulation cure to a depth greater than 1 cm in 10 seconds when exposed to a 75 watt tungsten halogen lamp which provided an irradiance of about 260 mw/cm^2.
An acrylate mixture was composed of 33% TMPTA, 33% DPHPA, 33% Epoxy acrylate, and 2% of DIDMA with either 0.01, 0.05 or 0.1 weight % of DIEF. All samples cured to a depth greater than 1 cm in 10 seconds when exposed to a 75 watt tungsten halogen.
An acrylate mixture was composed of 70% urethane diacrylate, 5% DPHPA, 25% BDDA, and 2% DIDMA with either 0.01, 0.03 or 0.1 weight % DIEF. The 0.01 and 0.03 samples cured after 2 passes through a 300 watt per inch medium pressure mercury arc lamp at a speed of 50 feet/minute to a depth greater than 3 mm. The 0.1 sample cured to a depth of greater than 1.5 mm.

[3] = double bond conversion (C=C% Conversion) by FTIR; details: DIDMA
Description: as §1
The foregoing study was repeated using 100% butanediol diacrylate, and 100% polyethylene glycol diacrylate (MW=400)(PEGA 400).

In the case of `CCCCOc1ccc2cc3cc(I)c(=O)c(I)c-3oc2c1` [DIBF, 5,7-diiodo-3-butoxy-6-fluorone], the Pencil hardness (pencil hardness; 0.05 wt. % w/ 0.05 wt. % DPISbF6, Dental Lamp, Air, 60 sec) is reported as 2H, the Pencil hardness (pencil hardness; 0.05 wt. % w/ 0.05 wt. % DPISbF6, Dental Lamp, No Air, 10 sec) is reported as over 6H and the Pencil hardness (pencil hardness; 0.05 wt. % w/ 0.05 wt. % DPISbF6, Fusion (Q bulb), Air, 10 ft/min) is reported as over 6H. The Pencil hardness (pencil hardness; 0.05 wt. % w/ 0.05 wt. % DPISbF6, Fusion (Q bulb), Air, 20 ft/min) was over 6H, the Pencil hardness (pencil hardness; 0.05 wt. %, 1% DIDMA, Dental Lamp, No Air, 10 sec) was 5-6H and the Pencil hardness (pencil hardness; 0.05 wt. %, 1% DIDMA, Dental Lamp, No Air, 30 sec) was over 6H. For the same compound, the Pencil hardness (pencil hardness; 0.05 wt. %, 1% DIDMA, Dental Lamp, No Air, 60 sec) was over 6H, the Pencil hardness (pencil hardness; 0.05 wt. %, 1% DIDMA, Fusion (Q bulb), Air, 10 ft/min) was over 6H and the Pencil hardness (pencil hardness; 0.05 wt. %, 1% DIDMA, Fusion (Q bulb), Air, 20 ft/min) was 3H. It also gave a Pencil hardness (pencil hardness; 0.05 wt. %, 1% NPG, Dental Lamp, No Air, 10 sec) of 4H, a Pencil hardness (pencil hardness; 0.05 wt. %, 1% NPG, Dental Lamp, No Air, 30 sec) of over 6H and a Pencil hardness (pencil hardness; 0.05 wt. %, 1% NPG, Dental Lamp, No Air, 60 sec) of over 6H. For the same compound, the Pencil hardness (pencil hardness; 0.05 wt. %, 1% NPG, Fusion (Q bulb), Air, 10 ft/min) was over 6H, the Pencil hardness (pencil hardness; 0.05 wt. %, 1% NPG, Fusion (Q bulb), Air, 20 ft/min) was 4H and the Pencil hardness (pencil hardness; 0.05 wt. %, 1% NPG, Overhead Proj., No Air, 60 sec) was 5-6H. The Pencil hardness (pencil hardness; 0.1% DIBF, 1.5% DIDMA, Dental Lamp, No Air, 10 sec) was over 6H, the Pencil hardness (pencil hardness; 0.1% DIBF, 1.5% DIDMA, Dental Lamp, No Air, 30 sec) was over 6H and the Pencil hardness (pencil hardness; 0.1% DIBF, 1.5% DIDMA, Dental Lamp, No Air, 60 sec) was over 6 h. The Pencil hardness (pencil hardness; 0.1% DIBF, 1.5% DIDMA, Fusion (Q bulb), Air, 10 ft/min) was over 6H, the Pencil hardness (pencil hardness; 0.1% DIBF, 1.5% DIDMA, Fusion (Q bulb), Air, 20 ft/min) was 5-6H and the Pencil hardness (pencil hardness; 0.1% DIBF, 1.5% NPG, Dental Lamp, No Air, 10 sec) was 5-6H. The Pencil hardness (pencil hardness; 0.1% DIBF, 1.5% NPG, Dental Lamp, No Air, 30 sec) was over 6H, the Pencil hardness (pencil hardness; 0.1% DIBF, 1.5% NPG, Dental Lamp, No Air, 60 sec) was over 6 h and the Pencil hardness (pencil hardness; 0.1% DIBF, 1.5% NPG, Fusion (Q bulb), Air, 10 ft/min) was over 6H. The Pencil hardness (pencil hardness; 0.1% DIBF, 1.5% NPG, Fusion (Q bulb), Air, 20 ft/min) was 5-6H, the Pencil hardness (pencil hardness; 0.1% DIBF, 2% NPG, Dental Lamp, No Air, 10 sec) was 5-6H and the Pencil hardness (pencil hardness; 0.1% DIBF, 2% NPG, Dental Lamp, No Air, 30 sec) was over 6H. For the same compound, the Pencil hardness (pencil hardness; 0.1% DIBF, 2% NPG, Dental Lamp, No Air, 60 sec) was over 6H, the Pencil hardness (pencil hardness; 0.1% DIBF, 2% NPG, Fusion (Q bulb), Air, 10 ft/min) was over 6H and the Pencil hardness (pencil hardness; 0.1% DIBF, 2% NPG, Fusion (Q bulb), Air, 20 ft/min) was 5-6H. The “Pencil hardness” value (pencil hardness; Table 11, 0.05%, (1:0:60), DIDMA, 10 sec.) was 4H, the “Pencil hardness” value (pencil hardness; Table 11, 0.05%, (1:0:60), DIDMA, 60 sec.) was over 6H and the “Pencil hardness” value (pencil hardness; Table 11, 0.05%, (1:1:60), DIDMA, 10 sec.) was over 6H. The “Pencil hardness” value (pencil hardness; Table 11, 0.05%, (1:2:3), DIDMA, 60 sec.) was over 6H, the “Pencil hardness” value (pencil hardness; Table 11, 0.05%, (1:2:3), NPG, 60 sec.) was over 6H and the “Pencil hardness” value (pencil hardness; Table 11, 0.10%, (1:2:3), DIDMA, 60 sec.) was over 6H. For the same compound, the “Pencil hardness” value (pencil hardness; Table 11, 0.15%, (1:2:3), DIDMA, 60 sec.) was over 6H, the “C=C% Conversion” value [1] was 43% and the “λmax in EtOH (first value)” value [2] was 470. For the same compound, the “ε (first value)” value ([2]; at first λmax, in M-1cm-1 (unit assumed)) was 30,200, the depth of cure (depth of cure; 10 seconds, 75 watt tungsten halogen, about 260 mw/cm^2, 0.05 weight % dye, 2 weight % DIDMA, 60% urethane diacrylate, 30% DPHPA, 10% BDDA) was “greater than 1 cm” and the depth of cure (depth of cure; 30 seconds, 350 watt tungsten halogen, about 500 mw/cm^2, dye 0.01, 0.05 and 0.1 weight, NPG 20 to 1) was 3 cm. The “cure time for the same depth (3 cm)” value (depth of cure; about 2 watts/cm^2, NPG 20 to 1) was 5 s, the “C=C% Conversion” value ([3]; 0.05 wt %, (1:0:60), 60 sec) was 50% and the “C=C% Conversion” value ([3]; 0.05 wt %, (1:2:3), 60 sec) was 61%. For the same compound, the “C=C% Conversion” value ([3]; 0.10 wt %, (1:2:3), 60 sec) was 90%, the “C=C% Conversion” value ([3]; 0.15 wt %, (1:2:3), 10 sec) was 60% and the “C=C% Conversion” value ([3]; 0.15 wt %, (1:2:3), 30 sec) was 84%. The “C=C% Conversion” value ([3]; 0.15 wt %, (1:2:3), 60 sec) was 90%.
